{"source": "patent US20090269309A1", "about": "“Retinoic acid stimulates differentiation of pancreatic progenitor cells into insulin producing cells” (priority 2004, published 2009)", "system": "mouse embryonic day (e) 10 dorsal pancreatic buds", "experiment": "Culture of e10 dorsal pancreatic bud explants with or without RA, endocrine cells scored by immunohistochemistry", "format": "cell-based", "text": "From mating between C57BL/6 (wild-type) mice, pregnant females were sacrificed ten days after the appearance of a vaginal plug, and embryos collected. The ten-day-old embryos were dissected in L15 medium (Gibco) using forceps and tungsten needles. The L15 medium is […]\nAt this embryonic stage the dorsal pancreatic bud can be seen as a round structure forming from the gut endoderm that can be dissected out from the surrounding tissues (see FIG. 3). Using a mouth pipette individual isolated pancreatic buds were placed on 0.4 μm, pore 3,28 12 mm Millicell-CM PICM01250 filters (Millipore) that were subsequently placed in a twenty-four well plate (Costar) where each well contained 400 μl culture medium, consisting of DMEM-glutamax1 (Gibco), 1×N2-supplement (Gibco) and PEST (Gibco).\nThe explants were cultured for six days in 37° C. and 5% CO2 in culture medium alone (control explants) or with 25 nM all-trans retinoic acid (Sigma) added to the medium.\nAfter six days of culture the explants were washed twice in PBS, fixated in 4% PFA in PBS for 25 minutes followed by two more washes in PBS. Using a small pair of scissors the filter was cut around the explant and the filter piece with the explant attached to it was placed in Tissue Tek O.C.T. Compound 4583 (Sakura). In the Tissue Tek the explant was gently removed from the filter using tungsten needles. A small drop of Tissue Tek was applied on a glass slide (Menzel) and the explant was placed in the drop using forceps and tungsten needles. The glass slides were put on dry ice to freeze the drops and were then stored in −80° C.\nThe frozen explants were sectioned using a Cryostat into […] thick sections that were collected on Superfrost Plus glass slides (Menzel). All explants from one experiment were put on the same slides. The slides were placed in a hybridisation chamber and blocked with blocking solution, TBST (50 mMT nsHCl, pH7.4, 150 mM MaCl, 0,1% Triton X-100)+10% FCS (fetal calf serum), for one hour. After blocking, primary antibodies diluted in fresh blocking solution were added and the slides were incubated overnight at 4° C. The following primary antibodies were used: guinea-pig α insulin (Linco) diluted 1/200, rabbit α glucagon (Euro Diagnostica) diluted 1/1000 and rabbit anti-ngn3 (raised against a GST-ngn3 fusion protein by AgriSeraAB) diluted 1/400. The slides were washed 3×5 minutes in TBST before incubation with secondary antibodies; a guinea-pig alexa488 (Molecular Probes) diluted 1/1000 and α rabbitCy3 (Jackson) diluted 1/400, for one hour in room temperature. The slides were then washed again 3×5 minutes in TBST before they were mounted using Vectashield with DAPI (Vector). The slides were analysed using a Nikon fluorescence microscope. The cells stained for insulin and glucagos respectively were counted and divided by the total number of cells that was counted using the DAPI staining which stains DNA i.e. every cell nucleus.\nTo investigate a role for RA in pancreatic cell differentiation mouse embryonic day (e) 10 dorsal pancreatic buds, which primarily contain pancreatic stem cells and very few differentiated pancreatic cells, were cultured in serum free media with or without RA for six days. The in vitro cultured explants were then scored for the appearance of endocrine cells expressing glucagon and insulin by immunohistochemistry using antibodies specific for glucagon and insulin. In vitro cultivation in media alone generated a few glucagon-(˜10% of total cells) and insulin-positive (˜5% of total cells) cells but the majority of cells were of non-endocrine origin (FIGS. 1 A-C and data not shown). […] Moreover, RA preferentially stimulated the differentiation of insulin-positive cells, which increased ˜4.5 fold, whereas glucagon-positive cells increased only ˜1,5 fold (FIG. 1D-F).", "note": "Where “and” joins values, the source holds several entries; their conditions need not be identical. Equal values may be shown once.", "data": [{"compound": "CC1=C(/C=C/C(C)=C/C=C/C(C)=C/C(=O)O)C(C)(C)CCC1", "note": "[RA, all-trans retinoic acid]", "values": [{"measurement": "increase in the number of ngn3-positive cells/total number of cells", "setting": "25 nM RA, 2 and 4 days of culture, versus medium alone", "result": "five-fold increase"}, {"measurement": "effect on the number of glucagon cells", "setting": "25 nM RA, versus medium alone, N=6", "result": "No significant effect"}, {"measurement": "increase in the number of insulin positive cells/total number of cells", "setting": "25 nM all-trans RA, six days of culture, versus explants in medium alone", "result": "> 3 fold and ~4.5 fold"}, {"measurement": "increase in endocrine cells", "setting": "25 nM all-trans RA, six days, versus explants cultured in media alone", "result": "more than 2 fold"}, {"measurement": "increase in glucagon-positive cells", "setting": "25 nM all-trans RA, six days, versus media alone", "result": "~1,5 fold"}, {"measurement": "endocrine cells (glucagon- and insulin-positive) of total cells", "setting": "25 nM all-trans RA, six days, media alone ~15%", "result": "~37", "unit": "%"}]}]}
